In US10245272B2, “Transmembrane penetration enhancer” (priority 2010, dated 2019):

Test: Amount of clonazepam in blood, brain and skin after transdermal application (HPLC)
Conditions: rats
Description: In support of another embodiment of the present invention, a supporting experiment was conducted where the backs of 3 white male rats that weighed approximately 150 g. were shaved and the backs of the rats were shaved and washed with lukewarm water and approximately 25 cm^2 of the base of a transmembrane/transdermal penetration enhancer described in Example 14 was administered. The base contained 10 mg of clonazepam and after six hours from the time of the application, the rats were killed and blood, brain and skin were taken from the application area. The amount of clonazepam in the organs and tissues of the killed rats were identified by HPLC method.

[1] = base of Example 14 with 10 mg clonazepam on approx. 25 cm^2, six hours after application

Compound: O=C1CN=C(c2ccccc2Cl)c2cc([N+](=O)[O-])ccc2N1 [clonazepam]
- amount of clonazepam in 1 cm^2 of the skin at the application area [1]: 0.04 ± 0.002 mg
- amount of clonazepam in 1 cm^3 of blood [1]: 0.043 ± 0.002 mg
- amount of clonazepam in 1 g of brain [1]: 0.016 ± 0.001 mg
- amount of penetrated/permeated clonazepam through 25 cm^2 application area (base of Example 14 with 10 mg clonazepam, during 6 hours): 60 % of applied amount
